Measurements from ChEMBL document CHEMBL2074574, “The interaction and transport of beta-lactam antibiotics with the cloned rat renal organic anion transporter 1” (J Pharmacol Exp Ther, 1999).
pKi: −log10 of the molar value. One block for each molecule: values may come before it.

Legend:
[1] = target: T1, Solute carrier family 22 member 6 (Rattus norvegicus, UniProt O35956); assay: TP_TRANSPORTER: inhibition of PAH uptake (PAH: 2 uM, Amoxicillin: 2000 uM) in Xenopus laevis oocytes; format: functional, cell-based; conditions: oocyte
T1 sequence (O35956 whole entry): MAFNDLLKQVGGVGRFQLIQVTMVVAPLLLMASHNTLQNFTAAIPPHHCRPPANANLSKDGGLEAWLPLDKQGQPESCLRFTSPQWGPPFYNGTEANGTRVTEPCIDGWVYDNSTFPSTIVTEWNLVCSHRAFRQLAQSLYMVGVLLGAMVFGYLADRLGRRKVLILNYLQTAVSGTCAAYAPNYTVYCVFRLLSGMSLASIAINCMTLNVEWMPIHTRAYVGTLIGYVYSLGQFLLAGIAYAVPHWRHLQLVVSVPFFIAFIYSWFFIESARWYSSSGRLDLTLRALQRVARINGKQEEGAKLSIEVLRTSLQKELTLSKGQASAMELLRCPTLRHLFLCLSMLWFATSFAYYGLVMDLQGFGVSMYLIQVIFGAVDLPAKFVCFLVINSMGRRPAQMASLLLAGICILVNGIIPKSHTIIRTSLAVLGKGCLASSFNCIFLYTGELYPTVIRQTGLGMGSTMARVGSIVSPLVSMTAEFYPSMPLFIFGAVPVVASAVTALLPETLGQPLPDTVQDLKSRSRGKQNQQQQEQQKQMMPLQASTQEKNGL

[2] = target: T1, Solute carrier family 22 member 6; assay: TP_TRANSPORTER: inhibition of PAH uptake (PAH: 2 uM, Cefsulodin: 2000 uM) in Xenopus laevis oocytes; format: functional, cell-based; conditions: oocyte
[3] = target: T1, Solute carrier family 22 member 6; assay: TP_TRANSPORTER: inhibition of PAH uptake (PAH: 2 uM, Ceftazidime: 2000 uM) in Xenopus laevis oocytes; format: functional, cell-based; conditions: oocyte
[4] = target: T1, Solute carrier family 22 member 6; assay: TP_TRANSPORTER: inhibition of PAH uptake in Xenopus laevis oocytes; format: functional, cell-based, Oocyte
[5] = target: T1, Solute carrier family 22 member 6; assay: TP_TRANSPORTER: inhibition of PAH uptake (PAH: 2 uM, Chloramphenicol: 2000 uM) in Xenopus laevis oocytes; format: functional, cell-based; conditions: oocyte
[6] = target: T1, Solute carrier family 22 member 6; assay: TP_TRANSPORTER: inhibition of PAH uptake (PAH: 2 uM, Cinoxacin: 2000 uM) in Xenopus laevis oocytes; format: functional, cell-based; conditions: oocyte
[7] = target: T1, Solute carrier family 22 member 6; assay: TP_TRANSPORTER: inhibition of PAH uptake (PAH: 2 uM, Cloxacillin: 2000 uM) in Xenopus laevis oocytes; format: functional, cell-based; conditions: oocyte
[8] = target: T1, Solute carrier family 22 member 6; assay: TP_TRANSPORTER: inhibition of PAH uptake (PAH: 2 uM, Nafcillin: 2000 uM) in Xenopus laevis oocytes; format: functional, cell-based; conditions: oocyte
[9] = target: T1, Solute carrier family 22 member 6; assay: TP_TRANSPORTER: inhibition of PAH uptake (PAH: 2 uM, Norfloxacin: 2000 uM) in Xenopus laevis oocytes; format: functional, cell-based; conditions: oocyte
[10] = target: T1, Solute carrier family 22 member 6; assay: TP_TRANSPORTER: inhibition of PAH uptake (PAH: 2 uM, OFLX: 2000 uM) in Xenopus laevis oocytes; format: functional, cell-based; conditions: oocyte
[11] = target: T1, Solute carrier family 22 member 6; assay: TP_TRANSPORTER: inhibition of PAH uptake (PAH: 2 uM, Piperacillin: 2000 uM) in Xenopus laevis oocytes; format: functional, cell-based; conditions: oocyte
[12] = target: T1, Solute carrier family 22 member 6; assay: TP_TRANSPORTER: inhibition of PAH uptake (PAH: 2 uM, Streptomycin: 2000 uM) in Xenopus laevis oocytes; format: functional, cell-based; conditions: oocyte
[13] = target: T1, Solute carrier family 22 member 6; assay: TP_TRANSPORTER: inhibition of PAH uptake (PAH: 2 uM, Vancomycin: 2000 uM) in Xenopus laevis oocytes; format: functional, cell-based; conditions: oocyte
[14] = target: T1, Solute carrier family 22 member 6; assay: TP_TRANSPORTER: inhibition of PAH uptake (PAH: 2 uM, Gentamicin: 2000 uM) in Xenopus laevis oocytes; format: functional, cell-based; conditions: oocyte

Molecule: CC1(C)S[C@@H]2[C@H](NC(=O)[C@H](N)c3ccc(O)cc3)C(=O)N2[C@H]1C(=O)O [AMOXICILLIN]
Activity [1]: inhibitor [(at a rough estimate) 20 % of control]

Molecule: NC(=O)c1cc[n+](CC2=C(C(=O)O)N3C(=O)[C@@H](NC(=O)[C@@H](c4ccccc4)S(=O)(=O)[O-])[C@H]3SC2)cc1 [CEFSULODIN]
Activity [2]: inhibitor [(at a rough estimate) 10 % of control]

Molecule: CC(C)(O/N=C(\C(=O)N[C@@H]1C(=O)N2C(C(=O)[O-])=C(C[n+]3ccccc3)CS[C@H]12)c1csc(N)n1)C(=O)O [CEFTAZIDIME]
Activity [3]: inhibitor [(at a rough estimate) 45 % of control]

pKi [4]: 2.64
Molecule: CC1=C(C(=O)O)N2C(=O)[C@@H](NC(=O)[C@H](N)c3ccccc3)[C@H]2SC1 [CEPHALEXIN ANHYDROUS]

Molecule: O=C(N[C@H](CO)[C@H](O)c1ccc([N+](=O)[O-])cc1)C(Cl)Cl [CHLORAMPHENICOL]
Activity [5]: inhibitor [(at a rough estimate) 75% of control]

Molecule: CCn1nc(C(=O)O)c(=O)c2cc3c(cc21)OCO3 [CINOXACIN]
Activity [6]: inhibitor [(at a rough estimate) 5 % of control]

Molecule: Cc1onc(-c2ccccc2Cl)c1C(=O)N[C@@H]1C(=O)N2[C@@H]1SC(C)(C)[C@@H]2C(=O)O [CLOXACILLIN]
Activity [7]: inhibitor [(at a rough estimate) 5 % of control]

Molecule: CCOc1ccc2ccccc2c1C(=O)N[C@@H]1C(=O)N2[C@@H]1SC(C)(C)[C@@H]2C(=O)O [NAFCILLIN]
Activity [8]: inhibitor [(at a rough estimate) <5 % of control]

Activity [9]: is not an inhibitor [-]
Molecule: CCn1cc(C(=O)O)c(=O)c2cc(F)c(N3CCNCC3)cc21 [NORFLOXACIN]

Activity [10]: is not an inhibitor [-]
Molecule: CC1COc2c(N3CCN(C)CC3)c(F)cc3c(=O)c(C(=O)O)cn1c23 (centres undefined) [OFLOXACIN]

Molecule: CCN1CCN(C(=O)N[C@@H](C(=O)N[C@@H]2C(=O)N3[C@@H]2SC(C)(C)[C@@H]3C(=O)O)c2ccccc2)C(=O)C1=O [PIPERACILLIN]
Activity [11]: inhibitor [(at a rough estimate) 5 % of control]

Activity [12]: is not an inhibitor [-]
Molecule: [H]/N=C(/N)N[C@H]1[C@H](O)[C@@H](O)[C@H](O[C@@H]2O[C@@H](C)[C@](O)(C=O)[C@H]2O[C@@H]2O[C@@H](CO)[C@H](O)[C@@H](O)[C@@H]2NC)[C@@H](N/C(N)=N\[H])[C@@H]1O [STREPTOMYCIN]

Molecule: CN[C@H](CC(C)C)C(=O)N[C@H]1C(=O)N[C@@H](CC(N)=O)C(=O)N[C@H]2C(=O)N[C@H]3C(=O)N[C@H](C(=O)N[C@H](C(=O)O)c4cc(O)cc(O)c4-c4cc3ccc4O)[C@H](O)c3ccc(c(Cl)c3)Oc3cc2cc(c3O[C@@H]2O[C@H](CO)[C@@H](O)[C@H](O)[C@H]2O[C@H]2C[C@](C)(N)[C@H](O)[C@H](C)O2)Oc2ccc(cc2Cl)[C@H]1O [VANCOMYCIN]
Activity [13]: is not an inhibitor [-]

Molecule: GENTAMICIN
Activity [14]: is not an inhibitor [-]
